In patent publication US4100276A, “Fusidic acid derivatives” (priority 1975, dated 1978):
Values after ≈ are worked out from the molar mass of the structure shown. “Also recorded” adds a separate entry of the source. Structures can show the parent of a compound that is named as a salt. Where two headings read alike, the source gives them in different places.

What was measured:
[1] = test system: Staphylococcus aureus; test: In vitro effect of combination with dihydro-fusidic acid, viable counts (Example 46); assay type: cell-based; conditions: tubes a, b 10 μg/ml, tube c 5 + 5 μg/ml
Experimental: In vitro-effect of the combination of dihydro-fusidic acid and 3α,11α-dihydroxy-16β-phenylthio-fusida-13(17),24-dien-21- oic acid
To three tubes containing NIH broth was added:
a. The sodium salt of dihydro-fusidic acid (10 μg/ml).
b. The sodium salt of 3α,11α-dihydroxy-16-phenylthiofusida-13(17),24-dien-21-oic acid (10 μg/ml).
c. A mixture of the sodium salts of dihydro-fusidic acid (5 μg/ml) and 3α,11α-dihydroxy-16-phenylthiofusida-13(17),24-dien-21-oic acid (5 μg/ml).
The tubes were inoculated with Staphylococcus aureus to give 5.2 × 10^5 organisms per ml, incubated at 37° C for 96 hours, and the viable counts were determined.
(§1) A fourth tube was treated similarly without addition of any of the antibiotics and used as a control: […]

[2] = test system: Staphylococcus aureus Leo CC178B; test: In vitro activity, concentration required for 50% inhibition (Table A); assay type: cell-based; conditions: Staphylococcus aureus, LEOCC178B, read-out: Concentration required for 50% inhibition (IC50)
[3] = test system: Streptococcus pyogenes Leo EC; test: as above; assay type: cell-based; conditions: Streptococcus pyogenes, read-out: Concentration required for 50% inhibition (IC50)
[4] = test system: Staph. aureus, Leo CC178H2 (fusidic acid resistant strain); test: as above; assay type: cell-based; conditions: Staphylococcus aureus, read-out: Concentration required for 50% inhibition (IC50)
[5] = test system: Staph. aureus Leo CJ145; test: as above; assay type: cell-based; conditions: Staphylococcus aureus, LEOCJ145, read-out: Concentration required for 50% inhibition (IC50)
[6] = test system: Streptococcus sp. Leo EG2; test: as above; assay type: cell-based; conditions: Streptococcus, read-out: Concentration required for 50% inhibition (IC50)
[7] = test system: Streptococcus pyogenes; test: In vitro bactericidal effect, viable counts (Example 44); assay type: cell-based; conditions: 10 μg/ml, NIH broth, 37° C; for Viable count after 0 hr: 0 hr (inoculum)
Experimental: In vitro bactericidal effect of 3α,11α-dihydroxy-16β-phenylthiofusida-13(17),24-dien-21-oic acid compared to that of fusidic acid […]
To two tubes containing NIH broth was added: a. The sodium salt of 3α,11α-dihydroxy-16β-phenylthiofusida-13(17),24-dien-21-oic acid (10 μg/ml) […]
b. The sodium salt of fusidic acid (10 μg/ml)
The tubes were inoculated with Streptococcus pyogenes to give 9.2×10^4 organisms per ml, incubated at 37° C, and the viable counts were determined at intervals.
A third tube was treated similarly without addition of any of the antibiotics and used as a control: […]

[8] = test system: Bacteroides fragilis, Leo JA2; test: In vitro activity, concentration required for 50% inhibition (Table A); assay type: cell-based; conditions: Bacteroides fragilis, LEOJA2, read-out: Concentration required for 50% inhibition (IC50)
[9] = test system: Corynebact. acnes Leo FN; test: as above; assay type: cell-based, Corynebacterium acnes; conditions: Cutibacterium acnes, read-out: Concentration required for 50% inhibition (IC50)
[10] = test system: Staph. aureus (Leo CC 178B), fusidic acid sensitive strain; test: microbe, parasite or virus in culture; assay type: cell-based; conditions: Staphylococcus aureus, isolates from "Comp. of Ex 8 cult." (48 hours pretreatment)
[11] = test system: Staph. aureus (Leo CC 178B), fusidic acid sensitive strain; test: microbe, parasite or virus in culture; assay type: cell-based; conditions: for IC50: Staphylococcus aureus
Experimental: Prevention of development of resistance against fusidic acid as a result of treating Staph. aureus with the sodium salt of 3α,11α-dihydroxy-16β-isopropylthiofusida-13(17),24-dien-21-oic acid
After a 48 hours pretreatment of a fusidic acid sensitive strain of Staph. aureus (Leo CC 178B) with subinhibitory concentrations of fusidic acid or the compound of Example 9. The sensitivities of the pretreated cultures and of the original strain against the two compounds were determined. The determinations were made by serial dilutions in NIH-broth, inoculum size 2.10^5 organisms/ml, and read as IC50 after 18 and 48 hours.

[12] = test system: Staphylococcus aureus; test: In vitro effect of combination with fusidic acid, viable counts (Example 45); assay type: cell-based; conditions: 24 hours; for Viable count: 37° C, fusidic acid 1 μg/ml (tube a), isopropylthio compound 3 μg/ml (tube b), mixture 1 + 3 μg/ml (tube c), inoculum 1.4×10^4; for Resistance of surviving organisms to the compound / development of resistance: fusidic acid 1 μg/ml, isopropylthio compound 3 μg/ml, mixture 1 + 3 μg/ml
Experimental: In vitro-effect of the combination of fusidic acid and 3α,11α-dihydroxy-16β-isopropylthio-fusida-13(17),24-dien- 21-oic acid
To 3 tubes containing NIH broth was added:
a. The sodium salt of fusidic acid (1 μg/ml).
b. The sodium salt of 3α,11α-dihydroxy-16-isopropylthiofusida-13(17),24-dien-21-oic acid (3 μg/ml).
c. A mixture of the sodium salts of fusidic acid (1 μg/ml) and 3α,11α-dihydroxy-16-isopropylthiofusida-13(17),24-dien-21-oic acid (3 μg/ml).
The tubes were inoculated with Staphylococcus aureus to give 1.4×10^4 organisms per ml, incubated at 37° C for 24 hours, and the viable counts were determined.
as §1

[13] = test system: fusidic acid sensitive strain of Staph. aureus (Leo CC 178B); test: In vitro activity before and after a number of transfers (Example 48, Table C); assay type: cell-based; conditions: for IC50: Staphylococcus aureus, Leo CC 178B (fusidic acid sensitive), overnight incubation
Experimental: (§2) In vitro activity of 3α,11α-dihydroxy-16β-ethylthiofusida-13(17),24-dien-21-oic acid against Staph. aureus before and after a number of transfers.
(§3) Serial dilutions of the compound above were made in liquid NIH-medium and then heavily inoculated with either a fusidic acid sensitive strain of Staph. aureus (Leo CC 178B) or with a fusidic acid resistant variant of the same strain (Leo CC 178A).
(§4) After every 72 to 96 hours transfers were made from the tubes containing the largest amount of the test compound showing full growth.

[14] = test system: fusidic acid resistant variant of Staph. aureus (Leo CC 178A); test: as above; assay type: cell-based; conditions: for IC50: Staphylococcus aureus
Experimental: as §2, §3, §4

[15] = test system: bacteria; test: In vitro investigations of antibacterial activity (general statements); assay type: cell-based
[16] = Absorption from the gastro-intestinal tract; conditions: in vivo
[17] = 18 h, isolates from control culture, inoculum 2.10^5 organisms/ml, NIH-broth, read-out: IC50, 18 hours
[18] = 48 h, isolates from control culture, inoculum 2.10^5 organisms/ml, NIH-broth, read-out: IC50, 48 hours
[19] = isolates from fusidic acid pretreated culture (48 hours pretreatment), read-out: IC50, 18 hours
[20] = isolates from fusidic acid pretreated culture (48 hours pretreatment), read-out: IC50, 48 hours
[21] = read-out: IC50 after 1st transfer
[22] = read-out: IC50 after 2nd transfer
[23] = read-out: IC50 after 3rd transfer
[24] = read-out: IC50 after 4th transfer
[25] = read-out: IC50 after 5th transfer
[26] = read-out: IC50 after 6th transfer

| SMILES | IC50 [2] | IC50 [3] | IC50 [4] | IC50 [5] | IC50 [6] | Viable count after 0 hr [7] | Viable count after 1.5 hr ([7]; inoculum 9.2×10^4) | Viable count after 4 hr ([7]; inoculum 9.2×10^4) | IC50 [8] | IC50 [9] | IC50 ([10]; read-out: IC50, 18 hours) | IC50 ([10]; read-out: IC50, 48 hours) | IC50 [11, 17] | IC50 [11, 18] | IC50 [11, 19] | IC50 [11, 20] | Viable count [12] | Resistance of surviving organisms to the compound / development of resistance [12] | also measured |
| --- | --- | --- | --- | --- | --- | --- | --- | --- | --- | --- | --- | --- | --- | --- | --- | --- | --- | --- | --- |
| CC(C)=CCCC(C(=O)O)C1=C2C[C@@H](O)[C@H]3[C@@]4(C)CC[C@@H](O)[C@@H](C)[C@@H]4CC[C@]3(C)[C@@]2(C)C[C@@H]1Sc1ccccc1 (stereo partly drawn) [Example 1, 3α,11α-Dihydroxy-16β -phenylthiofusida-13(17), 24-dien-21-oic acid sodium salt] | 1.6 µg/mL | 0.5 µg/mL | 1.6 µg/mL | 3.2 µg/mL | 1.6 µg/mL | 9.2 × 10^4 organisms per ml | 1.4 × 10^4 organisms per ml | 5.7 × 10^2 organisms per ml | 20 µg/mL | 0.5 µg/mL | – | – | – | – | – | – | – | – | Viable counts after 6 1/2 hours ([1]; 37° C, inoculum 5.2 × 10^5): 1.1 × 10^4 organisms per ml; Viable counts after 2 hours ([1]; 37° C, inoculum 5.2 × 10^5): 5.2 × 10^4 organisms per ml; Viable counts after 24 hours ([1]; 37° C, inoculum 5.2 × 10^5): 3.1 × 10^6 organisms per ml; Resistance of surviving organisms to the compound / development of resistance ([1]; 96 hours): resistant to 3α,11α-dihydroxy-16β-phenylthio-fusida-13(17),24-dien-21- oic acid |
| CC(C)=CCCC(C(=O)O)C1=C2C[C@@H](O)[C@H]3[C@@]4(C)CC[C@@H](O)[C@@H](C)[C@@H]4CC[C@]3(C)[C@@]2(C)C[C@@H]1SC(C)C (stereo partly drawn) [Example 9, 3α,11α-dihydroxy-16β-isopropylthiofusida-13(17), 24-dien-21-oic acid sodium salt] | – | – | – | – | – | – | – | – | – | – | 5 µg/mL | 16 µg/mL | 2 µg/mL | 5 µg/mL | 1.6 µg/mL | 5 µg/mL | 1.5 × 10^6 organisms per ml | resistant to 3α,11α-dihydroxy-16β-isopropylthio-fusida-13(17),24-dien- 21-oic acid | Emergence of resistance against fusidic acid / change of sensitivity after pretreatment ([11]; 48 hours pretreatment with subinhibitory concentrations, sodium salt): Only a slight decrease of the sensitivity; also recorded: totally prohibited the emergence of resistance against fusidic acid |
| CCS[C@H]1C[C@@]2(C)C(=C1C(CCC=C(C)C)C(=O)O)C[C@@H](O)[C@H]1[C@@]3(C)CC[C@@H](O)[C@@H](C)[C@@H]3CC[C@@]12C (stereo partly drawn) [Example 11, 3α,11α-dihydroxy-16β-ethylthiofusida-13(17),24-dien-21-oic acid sodium salt] | 2.7 µg/mL | 1.6 µg/mL | 3.2 µg/mL | 3.2 µg/mL | 1.6 µg/mL | – | – | – | 2 µg/mL | 2 µg/mL | – | – | – | – | – | – | – | – | IC50 [13, 21]: 2 µg/mL; IC50 [13, 22]: 7.4 µg/mL; IC50 [13, 23]: 7.4 µg/mL; IC50 [13, 24]: 13.5 µg/mL; IC50 [13, 25]: 10 µg/mL; IC50 [13, 26]: 32 µg/mL; IC50 ([13]; read-out: IC50 before transfer): 2.7 µg/mL; Decrease of sensitivity after the 6th transfer ([13]; fusidic acid sensitive strain): 12 fold; IC50 [14, 21]: 2.3 µg/mL; IC50 [14, 22]: 3.8 µg/mL; IC50 [14, 23]: 4.3 µg/mL; IC50 [14, 24]: 4.2 µg/mL; IC50 [14, 25]: 4 µg/mL; IC50 [14, 26]: 4 µg/mL; IC50 ([14]; read-out: IC50 before transfer): 2.7 µg/mL; Change in sensitivity after transfers ([14]; fusidic acid resistant strain): hardly shows any change in sensitivity |
| CC(=O)O[C@H]1C[C@@]2(C)[C@@H](C[C@@H](O)[C@H]3[C@@]4(C)CC[C@@H](O)[C@@H](C)[C@@H]4CC[C@@]32C)/C1=C(\CCC=C(C)C)C(=O)O [Fusidic acid] | 0.025 µg/mL (≈ 0.0484 µM) | 0.63 µg/mL (≈ 1.22 µM) | 32 µg/mL (≈ 61.9 µM) | 16 µg/mL (≈ 31 µM) | 1.6 µg/mL (≈ 3.1 µM) | – | – | – | 1.6 µg/mL (≈ 3.1 µM) | 0.2 µg/mL (≈ 0.387 µM) | 0.016 µg/mL (≈ 0.031 µM) | 0.02 µg/mL (≈ 0.0387 µM) | 0.016 µg/mL (≈ 0.031 µM) | 1 µg/mL (≈ 1.94 µM) | 7.9 µg/mL (≈ 15.3 µM) | 50 µg/mL (≈ 96.8 µM) | – | resistant to fusidic acid | Antibacterial effect, bactericidal/bacteriostatic (in words) [15]: solely bacteriostatic; Absorption from the gastro-intestinal tract (in words) [16]: absorbed efficiently from the gastro-intestinal tract |
| CC(=O)O[C@H]1C[C@@]2(C)[C@@H](C[C@@H](O)[C@H]3[C@@]4(C)CC[C@@H](O)[C@@H](C)[C@@H]4CC[C@@]32C)/C1=C(\CCC=C(C)C)C(=O)O [sodium salt of fusidic acid] | – | – | – | – | – | 9.2 × 10^4 organisms per ml | 1.2 × 10^5 organisms per ml | 1.5 × 10^5 organisms per ml | – | – | – | – | – | – | – | – | 1.8 × 10^8 organisms per ml | – | Viable count after 7 hr ([7]; inoculum 9.2×10^4): 1.3 × 10^5 organisms per ml |
